Counter-ions that a name gives are not always drawn.
The molecules below were run against T1, Mouse VCP (Mus musculus, UniProt Q01853) (assay: ATPase activity of purified His-tagged VCP, [γ-32P]ATP, liberated phosphate by liquid scintillation). Details: compounds of Comparative Examples; determined in the same manner as the Examples.
T1 construct: histidine tag (N); made in house; host or cells: Sf-9 insect cells (baculovirus vector pVL1392)
Assay type: biochemical
Procedure: In one aspect, the effect of VCP regulators for regulating ATPase activity is determined, for example by the following exemplary assay. Mouse VCP cDNA (the amino acid sequence is completely identical among mouse, rat and human) is added with a DNA sequence corresponding to a histidine tag at the amino-terminal, subcloned into a baculovirus vector pVL1392 (BD Bioscience), and expressed in Sf-9 insect cells. The protein is purified with a nickel column. After the purification the concentration of the protein is adjusted to 0.25-0.5 μg/ml and the protein is stored in a solution containing 50 mM TrisCl pH 8.0, 5 mM EDTA, 10% glycerol, and 15 mM DTT at 4° C. 500 ng of the purified VCP is mixed with 100 μM [γ-^32P]ATP (18.5 GBq/mmol) and the test substance in 20 μL of ATPase buffer (20 mM HEPES (pH7.4), 50 mM KCl, 5 mM MgCl2, 15 mM DTT), and incubated at 37° C. for 10 minutes. The enzyme reaction is stopped with addition of 200 μL of an ice-cold solution containing 7% TCA and 1 mM K2HPO4. 50μ of a solution containing 3.75% ammonium molybdate and 0.02M tungstate silicic/3 N H2SO4 is added, followed by 300 μL of n-butylacetic acid, and then the liberated phosphate is extracted into the organic layer. The reaction tube is centrifuged for 5 minutes at 20,000 g to separate the aqueous layer and the organic layer, 200 μL of the organic layer is taken, and the beta ray radiated from the liberated phosphate is quantified with liquid scintillation counter. By measuring the ATPase activity in the presence of the test substance at various concentrations, ATPase inhibitory activity of the test substance is measured.
Mouse VCP cDNA was added with a DNA sequence corresponding to histidine tag at the amino-terminal, subcloned into a baculovirus vector pVL1392 (BD Bioscience), and expressed in Sf-9 insect cells. The protein was purified with a nickel column (GE Healthcare). The concentration of the protein was adjusted to 0.25-0.5 μg/ml and the protein was stored in a solution containing 50 mM TrisCl pH 8.0, 5 mM EDTA, 10% glycerol, and 15 mM DTT.
The ATPase activity was determined as follows. 500 ng of the purified VCP was mixed with 100 μM [γ-32P]ATP (18.5 GBq/mmol) and the test substance in 20 μL of ATPase buffer (20 mM HEPES (pH7.4), 50 mM KCl, 5 mM MgCl2, 15 mM DTT), and incubated at 37° C. for 10 minutes.
The enzyme reaction was stopped with addition of 200 μL of an ice-cold solution containing 7% TCA and 1 mM K2HPO4. 50μ of a solution containing 3.75% ammonium molybdate and 0.02M tungstate silicic/3 NH2SO4 was added, followed by 300 μL of n-butylacetic acid, and then the liberated phosphate was extracted into the organic layer. The reaction tube was centrifuged for 5 minutes at 20,000 g to separate the aqueous layer and the organic layer, 200 μL of the organic layer was taken, and the beta ray radiated from the liberated phosphate was quantified with liquid scintillation counter.
By measuring the ATPase activity in the presence of the test substance at various concentrations, ATPase inhibitory activity of the test substance was measured. IC50 of the each test substance was calculated by applying the measured values to the equation below using GraphPad Prism (GraphPad Software).

T1 sequence (Q01853 whole entry): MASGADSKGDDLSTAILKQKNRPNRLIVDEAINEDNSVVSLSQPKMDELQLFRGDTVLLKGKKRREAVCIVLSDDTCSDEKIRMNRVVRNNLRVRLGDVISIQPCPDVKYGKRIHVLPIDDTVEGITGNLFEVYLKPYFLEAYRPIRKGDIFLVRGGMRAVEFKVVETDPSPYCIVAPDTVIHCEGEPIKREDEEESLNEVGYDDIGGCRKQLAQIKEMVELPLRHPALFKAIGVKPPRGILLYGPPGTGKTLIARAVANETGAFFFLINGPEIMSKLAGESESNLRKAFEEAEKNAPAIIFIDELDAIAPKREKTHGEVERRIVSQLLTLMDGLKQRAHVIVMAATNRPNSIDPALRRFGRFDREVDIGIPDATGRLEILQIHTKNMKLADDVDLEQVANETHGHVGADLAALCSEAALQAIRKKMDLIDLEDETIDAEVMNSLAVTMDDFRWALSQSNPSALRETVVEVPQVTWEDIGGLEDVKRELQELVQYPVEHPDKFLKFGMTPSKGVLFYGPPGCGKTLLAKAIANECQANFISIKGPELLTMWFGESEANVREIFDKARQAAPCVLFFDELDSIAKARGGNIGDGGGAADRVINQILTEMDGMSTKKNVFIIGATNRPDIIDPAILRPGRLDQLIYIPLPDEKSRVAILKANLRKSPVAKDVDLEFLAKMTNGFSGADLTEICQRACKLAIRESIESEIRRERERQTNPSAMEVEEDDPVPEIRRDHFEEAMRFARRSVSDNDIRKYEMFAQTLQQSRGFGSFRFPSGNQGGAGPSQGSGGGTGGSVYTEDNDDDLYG

Q: `Nc1ccc(S(=O)(=O)O)c2ccccc12` [Example 20, sodium salt] was tested. Which IC50 did it give?
A: The IC50 was > 10000 nM.

Same assay, conditions: compounds of Examples; ATPase inhibitory activity; 500 ng VCP, 100 μM ATP, 37° C., 10 minutes

Q: For `Cc1cc(/N=N/c2cc(S(=O)(=O)O)c3ccccc3c2N)cnc1-c1cccc2c1sc1ccccc12` [Example 85, 4-amino-3-(6-dibenzothiophene-4-yl-5-methylpyridine-3-ylazo)naphthalene-1-sulfonic acid sodium salt], which IC50 is on record?
A: The IC50 was 1050 nM.

Q: With `Nc1c(/N=N/c2ccc(F)cc2F)cc(S(=O)(=O)O)c2ccccc12` [Example 116, 4-amino-3-(2,4-difluorophenylazo)naphthalene-1-sulfonic acid sodium salt] as the molecule, how does the IC50 read?
A: Its IC50 is 1230 nM.

Q: How did the IC50 turn out when `N#Cc1ccccc1/N=N/c1cc(S(=O)(=O)O)c2ccccc2c1N` [Example 105, 4-amino-3-(2-cyanophenylazo)naphthalene-1-sulfonic acid sodium salt] was run?
A: The IC50 was 238 nM.

Q: For `CCOc1ccncc1/N=N/c1cc(S(=O)(=O)O)c2ccccc2c1N` [Example 13, 4-amino-3-(4-ethoxypyridine-3-ylazo)naphthalene-1-sulfonic acid sodium salt], which IC50 is on record?
A: The IC50 was 26600 nM.

Q: How did the IC50 turn out when `Nc1c(/N=N/c2ccc(-c3cccnc3)nc2-c2cccnc2)cc(S(=O)(=O)O)c2ccccc12` [Example 54, 4-amino-3-([3,2′;6′,3″]terpyridine-3′-ylazo)naphthalene-1-sulfonic acid sodium salt] was run?
A: The IC50 was 1060 nM.

Q: With `Nc1c(/N=N/c2cccnc2-c2cccnc2)cc(S(=O)(=O)O)c2ccccc12` [Example 51, 4-amino-3-([2,3′]-bipyridinyl3-ylazo)naphthalene-1-sulfonic acid sodium salt] as the molecule, how does the IC50 read?
A: Its IC50 is 3070 nM.

Q: How did the IC50 turn out when `Nc1c(/N=N/c2cccc(Br)c2)cc(S(=O)(=O)O)c2ccccc12` [Example 109, 4-amino-3-(3-bromophenylazo)naphthalene-1-sulfonic acid sodium salt] was run?
A: Its IC50 is 856 nM.

Q: How did the IC50 turn out when `Nc1c(/N=N/c2ccc(-c3ccccc3OCCCNC(=O)c3ccnc(Cl)c3)nc2)cc(S(=O)(=O)O)c2ccccc12` [Example 77, 4-amino-3-[6-(2-{3-[(2-chloropyridine-4-carbonyl)amino]propoxy}phenyl)pyridine-3-ylazo]naphthalene-1-sulfonic acid sodium salt] was run?
A: Its IC50 is 366 nM.

Q: `N#Cc1ccc(/N=N/c2cc(S(=O)(=O)O)c3ccccc3c2N)cc1` [Example 107, 4-amino-3-(4-cyanophenylazo)naphthalene-1-sulfonic acid sodium salt] was tested. Which IC50 did it give?
A: The IC50 was 540 nM.

Q: With `CCCOc1cccc(F)c1-c1ccc(/N=N/c2cc(S(=O)(=O)O)c3ccccc3c2N)cn1` [Example 56, 4-amino-3-[6-(2-fluoro-6-propoxyphenyl)pyridine-3-ylazo]naphthalene-1-sulfonic acid sodium salt] as the molecule, how does the IC50 read?
A: The IC50 was 246 nM.

Q: With `CCCOc1ccc(F)cc1-c1ccc(/N=N/c2cc(S(=O)(=O)O)c3ccccc3c2N)cn1` [Example 55, 4-amino-3-[6-(5-fluoro-2-propoxyphenyl)pyridine-3-ylazo]naphthalene-1-sulfonic acid sodium salt] as the molecule, how does the IC50 read?
A: Its IC50 is 139 nM.

Q: How did the IC50 turn out when `CC(C)COc1ccccc1-c1ccc(/N=N/c2cc(S(=O)(=O)O)c3ccccc3c2N)cn1` [Example 67, 4-amino-3-[6-(2-isobutoxyphenyl)pyridine-3-ylazo]naphthalene-1-sulfonic acid sodium salt] was run?
A: The IC50 was 130 nM.

Q: Which IC50 does the source give for `CC(C)(C)OC(=O)NCCCOc1ccccc1-c1ccc(/N=N/c2cc(S(=O)(=O)O)c3ccccc3c2N)cn1` [Example 68, 4-amino-3-{6-[2-(3-tert-butoxycarbonylaminopropoxy)phenyl]pyridine-3-ylazo}naphthalene-1-sulfonic acid sodium salt] here?
A: The IC50 was 201 nM.

Q: Which IC50 does the source give for `Cc1ccc(/N=N/c2cc(S(=O)(=O)O)c3ccccc3c2N)cc1` [Example 122, 4-amino-3-p-tolylazonaphthalene-1-sulfonic acid sodium salt] here?
A: Its IC50 is 849 nM.

Q: With `Cc1cc(F)ccc1-c1ncc(/N=N/c2cc(S(=O)(=O)O)c3ccccc3c2N)cc1C` [Example 79, 4-amino-3-[6-(4-fluoro-2-methylphenyl)-5-methylpyridine-3-ylazo]naphthalene-1-sulfonic acid sodium salt] as the molecule, how does the IC50 read?
A: Its IC50 is 798 nM.

Source: patent US9573887B2, “Naphthalene derivative” (Daito Chemix Corporation, priority 2010, dated 2017)
